In patent publication US20090281121A1, “SUBSTITUTED 8-PIPERIDINYL-2-PYRIDINYL-PYRIMIDO[1,2-a] PYRIMIDIN-6-ONE AND 8-PIPERIDINYL-2-PYRIMIDINYL-PYRIMIDO[1,2-a] PYRIMIDIN-6-ONE DERIVATIVES” (SANOFI-AVENTIS, priority 2006, published 2009) one finds melting point and IC50 data, which are given here for three compounds.

Where a name gives a salt, the structure may show the parent alone.

Data set [1] deals with GSK3β (Homo sapiens, UniProt P49841). The data set can be described thus: Inhibitory activity against GSK3β (33P-ATP phosphorylation of prephosphorylated GS1 peptide, two protocols). The data set is classed as biochemical. The conditions noted are these: first or second protocol not specified. The protocol:
Two different protocols can be used.
In a first protocol: 7.5 μM of prephosphorylated GS1 peptide and 10 μM ATP (containing 300,000 cpm of 33P-ATP) were incubated in 25 mM Tris-HCl, pH 7.5, 0.6 mM DTT, 6 mM MgCl2, 0.6 mM EGTA, 0.05 mg/ml BSA buffer for 1 hour at room temperature in the presence of GSK3beta (total reaction volume: 100 microliters).
In a second protocol: 4.1 μM of prephosphorylated GS1 peptide and 42 μM ATP (containing 260,000 cpm 33P-ATP) were incubated in 80 mM Mes-NaOH, pH 6.5, 1 mM Mg acetate, 0.5 mM EGTA, 5 mM 2-mercaptoethanol, 0.02% Tween 20, 10% glycerol buffer for 2 hours at room temperature in the presence of GSK3beta. Inhibitors were solubilized in DMSO (final solvent concentration in the reaction medium, 1%).
The reaction was stopped with 100 microliters of a solution made of 25 g polyphosphoric acid (85% P2O5), 126 ml 85% H3PO4, H2O to 500 ml and then diluted to 1:100 before use. An aliquot of the reaction mixture was then transferred to Whatman P81 cation exchange filters and rinsed with the solution described above. Incorporated 33P radioactivity was determined by liquid scintillation spectrometry.
The phosphorylated GS-1 peptide had the following sequence NH2-[…](P)EDEE-COOH. (Woodgett, J. R. (1989) Analytical Biochemistry 180, 237-241.

Sequence of GSK3β (P49841 whole entry): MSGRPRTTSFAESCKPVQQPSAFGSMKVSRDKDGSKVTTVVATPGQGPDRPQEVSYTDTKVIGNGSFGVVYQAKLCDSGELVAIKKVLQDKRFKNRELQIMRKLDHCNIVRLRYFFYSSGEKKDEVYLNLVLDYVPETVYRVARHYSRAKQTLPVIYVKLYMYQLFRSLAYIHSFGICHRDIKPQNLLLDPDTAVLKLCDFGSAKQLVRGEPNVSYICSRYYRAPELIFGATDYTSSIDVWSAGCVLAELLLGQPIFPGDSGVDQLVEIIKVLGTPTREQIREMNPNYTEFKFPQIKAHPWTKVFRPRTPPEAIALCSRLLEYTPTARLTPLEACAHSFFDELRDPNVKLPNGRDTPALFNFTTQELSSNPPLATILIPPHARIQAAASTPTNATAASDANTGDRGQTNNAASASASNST

For orientation: melting point means the temperature, or range, at which the solid turns liquid. For the compound `COc1cc(F)ccc1CCN1c2nc(-c3ccncc3)cc(=O)n2CCC1C1CCNCC1` (racemic) [compound 7, (+/−)9-[2-(4-fluoro-2-methoxy-phenyl)ethyl]-8-(4-piperidinyl)-2-(4-pyridinyl)-6,7,8,9-tetrahydro-4H-pyrimido[1,2-a]pyrimidin-4-one], the melting point fell in the range of 270 to 272 °C.

Compound `O=C(CN1c2nc(-c3ccncc3)cc(=O)n2CCC1C1CCNCC1)c1cccc(Br)c1` (racemic) (as salt: hydrochloride) [compound 8, (−)9-[2-Oxo-2-(3-bromo-phenyl)ethyl]-8-(4-piperidinyl)-2-(4-pyridinyl)-6,7,8,9-tetrahydro-4H-pyrimido[1,2-a]pyrimidin-4-one] returned a melting point of 255 to 257 °C.

As usually defined, the IC50 is the concentration that inhibits the measured activity by half. Take `O=C(CN1c2nc(-c3ccncc3)cc(=O)n2CCC1C1CCNCC1)c1ccccc1` (racemic) [Compound No. 3, (+/−)-9-(2-Oxo-2-phenylethyl)-8-(4-piperidinyl)-2-(4-pyridinyl)-6,7,8,9-tetrahydro-4H-pyrimido[1,2-a]pyrimidin-4-one]: in data set [1], the IC50 was 12 nM.
